13 compounds from ChEMBL document CHEMBL1121499, “Experimental antiulcer drugs.4. 1,3-Disubstituted 2,4,5,6-tetrahydro-4,6,6 -trimethyl-2-phenylcyclopenta[c]pyrrole-4-carboxamides” (J Med Chem, 1980) can be followed below.

Structures are written as SMILES.

The test system of one series is Rattus norvegicus. Kind of series: Tested for gastric antisecretory activity in the pyloric ligated rat by observing the pH of gastric contents at dose 100 mg/kg orally 1 hr prior to the 5-h pyloric ligation period. The format is ADME, organism-based, Stomach. Also on record: dose 100 mg/kg, route oral. The settings on record: in vivo, po.
The compound `CC1(C)CC(C)(C(N)=O)c2c1c(C=O)n(-c1ccccc1)c2C=O` (stereo not drawn) yielded a pH of 1.2.

Turning to `CC1(C)CC(C)(C(N)=O)c2cn(-c3ccccc3)c(C=O)c21` (stereo not drawn), the pH is recorded as 1.5.

`Cc1c2c(c(C=O)n1-c1ccccc1)C(C)(C)CC2(C)C(N)=O` (stereo not drawn) showed a pH of 1.5.

For the compound `Cc1c2c(c(CO)n1-c1ccccc1)C(C)(C)CC2(C)C(N)=O` (stereo not drawn), the pH was found to be 5.7.

For the compound `Cc1c2c(c(CO)n1-c1ccccc1)C(C)(C(N)=O)CC2(C)C` (stereo not drawn), the pH is 7.

For `Cc1c2c(c(C=O)n1-c1ccccc1)C(C)(C(N)=O)CC2(C)C` (stereo not drawn), the pH stood at 1.2.

`Cc1c2c(cn1-c1ccccc1)C(C)(C(N)=O)CC2(C)C` (stereo not drawn) showed a pH of 2.6.

`Cc1c2c(c(C)n1-c1ccccc1)C(C)(C(N)=O)CC2(C)C` (stereo not drawn) displayed a pH of 6.2.

On to `CC1(C)CC(C)(C(N)=O)c2cn(-c3ccccc3)c(CO)c21` (stereo not drawn), for which the pH is given as 6.4.

The subject of the next series is Rattus norvegicus. The series is described as follows: Tested for gastric antisecretory activity in the pyloric ligated rat by observing the pH of gastric contents at dose 100 mg/kg orally 1 h prior to the 5-h pyloric ligation period; Inactive. The settings on record: in vivo, po. The format is organism-based, Stomach. Also on record: dose 100 mg/kg, route oral.
In turn, `Cc1c2c(cn1-c1ccccc1)C(C)(C)CC2(C)C(N)=O` (stereo not drawn) registered a pH of 1.2.

For another series, the system named is Rattus norvegicus. Kind of series: Tested for gastric antisecretory activity in the pyloric ligated rat by observing the pH of gastric contents at dose 100 mg/kg orally 1 hr prior to the 5-h pyloric ligation period; pH < 2 is inactive. The series is classed as ADME, organism-based, Stomach. Also on record: dose 100 mg/kg, route oral. The settings on record: in vivo, po.
The compound `CC1(C)CC(C)(C(N)=O)c2cn(-c3ccccc3)cc21` (stereo not drawn) gave a pH of 1.1.

The compound `CC1(C)CC(C)(C(N)=O)c2c1c(CO)n(-c1ccccc1)c2CO` (stereo not drawn) had a pH of 1.2.

As to `CCc1c2c(c(CC)n1-c1ccccc1)C(C)(C(N)=O)CC2(C)C` (stereo not drawn), the pH is listed as 1.1.
